From patent US20220313658A1, “YAP Inhibition for Wound Healing” (The Board of Trustees of the Leland Stanford Junior …, priority 2019, published 2022) come the findings set out here.

One test deals with ENFs. In words: ENFs cultured on stiff tissue culture plastic (TCPS) with ROCK inhibitor: En-1 activation. Format: cell-based, mouse. The following applies: bulk ENFs on stiff TCPS with ROCK inhibitor, 14 days in culture. An excerpt:
(§1) Mice were euthanized by CO2 narcosis and cervical dislocation, the dorsal fur was clipped, a depilatory cream was applied topically to the dorsum for 30 seconds. Next, the dorsal skin was harvested using dissecting scissors by separation along fascial planes, the subcutaneous fat was trimmed with a scalpel, and the skin was rinsed in betadine, followed by 5 rinses in cold PBS. To achieve a cell suspension, the harvested skin was finely minced using sharp scissors, enzymatically digested (Liberase DL, 0.5 mg/mL, 1 hour), and filtered through a 40 μm nylon mesh. ENFs and EPFs were isolated from En-1^Cre;R26^mTmG mice (En-1 lineage-negative cells, mTomato^+; En-1 lineage-positive cells, GFP^+) via a previously reported FACS strategy. Briefly, a lineage gate (Lin) for hematopoietic (CD45, Ter-119), endothelial (CD31, Tie2), and epithelial (CD326, CD324) cell markers was used as a negative gate to isolate fibroblasts (Lin^−), which were sorted into ENFs (Tornato^+GFP^−Lin^−) and EPFs (Tomato^−GFP+ Lin^−). To isolate ENF subpopulations, dorsal skin cells were harvested from P1 En-1^Cre,Ai6 mice (En-1 lineage-negative cells, no fluorescence; En-1 lineage-positive cells, GFP^+) via mechanical and enzymatic digestion as described above. […]

In test [1] the test system is reticular dermal (Dlk1^+) ENFs. In words: Fractionated ENF subpopulations cultured on TCPS with or without ROCK inhibitor. Format: cell-based, mouse. The conditions noted are these: 14 days, ROCK inhibitor added.
Text: as §1

As for `C[C@@H](N)[C@H]1CC[C@H](C(=O)Nc2ccncc2)CC1` [Y-27632], in the test on ENFs, the “En-1 activation (conversion of ENFs to GFP+ EPFs)” value is on record as “lack of En-1 activation”. In addition, in test [1], the “En-1 activation in Dlk1+ ENFs” value is “blocked”.
